Results as given in patent publication US20240033282A1, “METHOD FOR IDENTIFYING AND/OR FOR OBTAINING AN ACTIVE SUBSTANCE FOR THE TREATMENT AND THERAPY OF FAMILIAL AMYOTROPHIC LATERAL SCLEROSIS, AND USE OF AN ACTIVE SUBSTANCE FOR THE TREATMENT OF THIS DISEASE” (Forschungszentrum Juelich GmbH, priority 2020, published 2024).

Columns and labels:
[1] = system: uptake of SOD1 aggregates into neuro-2a cells; experiment: flow cytometric determination of the uptake of fluorescently labeled SOD1 aggregates into neuro-2a cells; type: cell-based; conditions: for uptake of fluorescently labeled SOD1 aggregates after treatment with endocytosis inhibitors: flow cytometry, FIG. 3
[2] = system: uptake of SOD1 aggregates into primary cortical neurons; experiment: flow cytometric determination of the uptake of fluorescently labeled SOD1 aggregates into primary cortical neurons; type: cell-based; conditions: primary cortical neurons of wild-type mice, treated as for neuro-2a cells, FIG. 7A
Method: In order to investigate whether the results in neuro-2a cells can be expanded to primary cortical neurons, isolated, cultured and treated primary cortical neurons of wild-type mice were treated with heparinase and chondroitinase as previously for neuro-2a cells, before they were exposed to DyLight 488-labeled SOD1 aggregates (FIG. 7A). Likewise, the uptake of SOD1 aggregates after blocking with heparin was tested, as previously carried out for neuro-2a cells (FIG. 7A). The uptake of SOD1 aggregates was again quantified by flow cytometry. […] The “***” or “****” above the bars indicate the statistical significance of the results. “***” corresponds to a significance with p≤0.001 and “****” corresponds to a significance with p≤0.0001 in comparison to the control.

ALS = conditions: clinical studies, compared to placebo, some individuals; cited from earlier work
prion diseases = conditions: in vivo; cited from earlier work

Compound	uptake of fluorescently labeled SOD1 aggregates after treatment with endocytosis inhibitors ([1]; neuro-2a cells)	also measured
O=C(N/N=C/c1ccc(O)c(O)c1)c1cc2ccccc2cc1O [dynasore]	inhibited the uptake of SOD1 aggregates	–
heparin	–	uptake of SOD1 aggregates pre-treated with heparin ([1]; aggregates treated at 4° C. with 1 mg/mL heparin for 6 hours, neuro-2a cells incubated 6 hours, FIG. 4B): inhibited the uptake of both wild-type and mutated SOD1 aggregates; uptake of DyLight 488-labeled SOD1 aggregates into primary cortical neurons [2]: inhibits uptake of SOD1 aggregates into primary cortical neurons
CC1=NN(c2ccccc2)C(=O)C1 [Radicava, edaravone]	–	decrease in bodily function measured by ALSFRS-R (ALS): significantly lower decrease in bodily function compared to placebo
[Na+].[O-][Cl+2]([O-])[O-] [sodium chlorate]	–	uptake of SOD1 aggregates after sodium chlorate treatment [1]: reduced the uptake of SOD1 aggregates in a dose-dependent manner
pentosan polysulfate sodium [PPS]	–	cellular uptake of fluorescently labeled wild-type and mutated SOD1 aggregates after PPS treatment ([1]; neuro-2a cells, increasing PPS concentrations, FIG. 5): competitively inhibited the cellular uptake of fluorescently labeled wild-type and mutated SOD1 aggregates at non-cytotoxic concentrations; survival of infected animals (prion diseases): extending the survival of infected animals after intracerebroventricular perfusion in a dose-dependent manner
C=C1[C@@H](C)[C@H]2[C@H](Cc3ccccc3)NC(=O)[C@]23[C@H](OC(C)=O)/C=C/[C@@](C)(O)C(=O)[C@@H](C)C/C=C/[C@H]3[C@@H]1O [cytochalasin D]	significantly inhibited the uptake	–
O=c1c(-c2ccc(O)cc2)coc2cc(O)cc(O)c12 [genistein, Genistein]	Neither the chloropromazine treatment nor the genistein treatment inhibited the uptake of SOD1 aggregates significantly	–
CCN(c1nc(N)c(C(=O)N=C(N)N)nc1Cl)C(C)C [EIPA, 5-N-ethyl-N-isopropyl amiloride]	reduced the uptake of SOD1 aggregates significantly	–
Oc1ccc2ccccc2c1SSc1c(O)ccc2ccccc12 [IPA-3, 2,2′-dihydroxy-1,1′-dinaphthyl disulfide]	reduced the uptake of SOD1 aggregates significantly	–
methyl-β-cyclodextrin	significantly reduced the uptake of SOD1 aggregates	–
CN(C)CCCN1c2ccccc2Sc2ccc(Cl)cc21 [chloropromazine, Chlorpromazine]	Neither the chloropromazine treatment nor the genistein treatment inhibited the uptake of SOD1 aggregates significantly	–
